Laboratory results reported in patent publication US20260092085A1, “SYNTHETIC TRIPLEX PEPTIDE NUCLEIC ACID-BASED INHIBITORS FOR CANCER THERAPY” (University of Connecticut, priority 2022, published 2026).

Columns and labels:
[1] = tested on: SUDHL-5 cells; assay: Cell viability by trypan blue assay, SUDHL-5; type: cell-based
Method: Cell viability was performed using trypan blue-based assay (n=3 technical triplicate), data represented as mean±(SEM), * represents the statistical analysis were performed relative to Scr-γtcPNA-155 and ♦ represent analysis performed relative to PNA-155. *p<0.05, **p<0.01, ***p<0.001 and ****p<0.0001, ♦p<0.05, ♦♦p<0.01, unpaired two-tailed t-test was used for statistical analysis. The experiment was repeated three times and in triplicate.
Cell viability was performed using trypan blue-based assay (n=3), data represented as mean±standard error mean (SEM), *p<0.05, **p<0.01. Unpaired two-tailed t-test was used for statistical analysis.
Cell viability was performed using trypan blue-based assay (n=3), data represented as mean±standard error mean (SEM).
Cell viability by trypan blue assay: Diffused large B cell lymphoma (DLBCL) cell lines like SUDHL-2 (ATCC® CRL-2956™) and SUDHL-5 (ATCC® CRL-2958™) cells were purchased from ATCC (Virginia, USA). The cells were regularly tested for Mycoplasma contamination using MycoAlert™ Mycoplasma detection kit (Lonza). All the cells used in the experiment were passaged less than 8 times. 10,000 U2932, SUDHL-5, or SUDHL-2 cells were plated in a 96 well plate. The cells were treated with different doses (500 nM, 1000 nM, 2000 nM and 4000 nM) of PNA-155, gamma tcPNA-155 or Scr-γtcPNA-155 for 48 hrs in an incubator (37° C. and 5% CO2). The dead cells were marked with trypan blue. Further counting was performed using an automated cell counter (Bio-rad).

[2] = tested on: U2932 cells; assay: Annexin V-based apoptosis assay in U2932 cells; type: cell-based, human; details: 48 hours
Method: Quantification of apoptotic cells by flow cytometry after treating U2932 cells with PBS as a control and 500 nM Scr-γtcPNA-155, PNA-155, γPNA-155 and γtcPNA-155 for 48 hours. The apoptotic cells and necrotic were stained using Phycoerythrin (PE) Annexin V and 7-Amino-Actinomycin (7-AAD) respectively. The % apoptotic cells after treatment was compared to the PBS treated cells, by setting the same threshold. Bar graph of % apoptotic cells (n=3 technical triplicate), data represented as mean±standard error mean (SEM), *p<0.05, **p<0.01, ***p<0.001, unpaired two-tailed t-test was used for statistical analysis. Representative dot plots of Scr-γtcPNA-155 and γtcPNA-155 treated U2932 cells. The experiment was repeated three times and in triplicate. One out of three representative experiments are shown.
The apoptotic cells and necrotic were stained using Phycoerythrin (PE) Annexin V and 7-Amino-Actinomycin (7-AAD) respectively. The % apoptotic cells after treatment was compared to the PBS treated cells, by setting the same threshold. Bar graph of % apoptotic cells (n=3 technical triplicate), data represented as mean±standard error mean (SEM), **p<0.01, unpaired two-tailed t-test was used for statistical analysis. Representative dot plots of PBS treated and γtcPNA-155 treated U2932 cells. The experiment was repeated three times and in triplicate. One out of three representative experiments is shown.
Apoptosis Assay: 400,000 U2932 cells were seeded in a 12 well plate. The cells were treated with 500 nM PNA-155, γPNA-155, γtcPNA-155, Scr-γ tcPNA-155 or were PBS treated (control) for 48 hrs in an incubator (37° C., 5% CO2). The cells were washed with PBS twice. The cells were centrifuged at 2000 rpm for 4 mins at 4° C. The cell pellet was suspended in IX Annexin V binding buffer. The cells were then counted and 100 μL of cell suspension (containing 2.5×10^5 cells) was passed through the FACS tube. […] 400 μL of IX Annexin V binding buffer was added to the cells and the cells were then analyzed using LSR Fortessa™ X-20 Cell analyzer as indicated above. […]

Substance: γtcPNA-155: serine gamma tail-clamp anti-miR-155 PNA, RR-TJJJJ-OOO-ACCCCTATCACGATTAGCATTAA-RR, SEQ ID NO: 3 (all peptide nucleic acid (PNA); serine gamma PNA, tail-clamp TJJJJ via linkers, Arg-Arg at both ends)
- reduction in cell viability at 500 nM ([1]; SUDHL-5, 500 nM, compared to PNA-155 treated group): significant reduction in cell viability
- decrease in cell viability ([1]; SUDHL-5, 4UM, 48 hours): ~80%
- apoptosis by Annexin-V FITC confocal imaging ([2]; U2932, 500 nM): higher apoptosis
- apoptosis by annexin V flow cytometry ([2]; U2932, 500 nM, versus PNA-155 and γPNA-155 treated group): increased apoptosis
- increase in apoptosis in comparison to control ([2]; U2932, 10 uM): 4.5 fold
